Molecular target: T1, Glycogen phosphorylase, muscle form (Oryctolagus cuniculus, UniProt P00489)
T1 sequence (P00489 whole entry): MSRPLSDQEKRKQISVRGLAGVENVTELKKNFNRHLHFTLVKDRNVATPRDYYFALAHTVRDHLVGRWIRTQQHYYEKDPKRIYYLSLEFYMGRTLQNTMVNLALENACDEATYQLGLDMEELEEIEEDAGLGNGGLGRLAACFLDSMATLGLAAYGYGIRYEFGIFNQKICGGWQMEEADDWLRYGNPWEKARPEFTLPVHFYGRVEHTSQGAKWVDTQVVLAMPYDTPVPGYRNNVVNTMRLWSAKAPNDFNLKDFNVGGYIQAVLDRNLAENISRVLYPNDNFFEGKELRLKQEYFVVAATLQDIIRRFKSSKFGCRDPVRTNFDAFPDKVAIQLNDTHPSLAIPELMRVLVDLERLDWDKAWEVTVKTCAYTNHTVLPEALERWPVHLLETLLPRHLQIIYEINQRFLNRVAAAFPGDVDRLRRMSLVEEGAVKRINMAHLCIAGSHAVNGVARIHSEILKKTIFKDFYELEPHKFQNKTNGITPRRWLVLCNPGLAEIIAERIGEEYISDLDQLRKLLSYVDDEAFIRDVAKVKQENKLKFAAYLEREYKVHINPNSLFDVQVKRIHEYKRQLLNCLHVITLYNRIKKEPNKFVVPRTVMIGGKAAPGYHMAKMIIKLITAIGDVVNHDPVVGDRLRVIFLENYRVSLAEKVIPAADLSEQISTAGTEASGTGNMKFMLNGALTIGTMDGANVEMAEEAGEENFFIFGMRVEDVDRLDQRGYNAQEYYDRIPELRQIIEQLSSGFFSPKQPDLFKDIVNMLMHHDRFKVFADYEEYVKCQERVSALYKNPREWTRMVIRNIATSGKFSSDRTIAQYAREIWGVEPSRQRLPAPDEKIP
Test: Inhibition of rabbit muscle glycogen phosphorylase a assessed as release of phosphate from glucose-1-phosphate after 25 mins using malachite green staining

SMILES | IC50 [µM]
CC1(C)CC[C@]2(C(=O)O)CC[C@]3(C)C(=CC[C@@H]4[C@@]5(C)CC[C@H](OC(=O)COCCOCCNC(=O)c6ccc(C(=O)c7ccc(NC(=O)CCCC[C@@H]8SC[C@@H]9NC(=O)N[C@@H]98)cc7)cc6)C(C)(C)[C@@H]5CC[C@]43C)[C@@H]2C1 | 41.1
CC1(C)CC[C@]2(C(=O)O)CC[C@]3(C)C(=CC[C@@H]4[C@@]5(C)CC[C@H](OC(=O)COCCOCCNC(=O)c6ccc(C(=O)c7ccc(NC(=O)CN=[N+]=[N-])cc7)cc6)C(C)(C)[C@@H]5CC[C@]43C)[C@@H]2C1 | 115
